ChEMBL document CHEMBL1159297, “Anguillosporal, a new antibacterial and antifungal metabolite from the freshwater fungus Anguillospora longissima” (1995)
Values after ≈ are worked out from the molar mass of the structure shown.

Columns and labels:
Staphylococcus aureus = experiment: Antibacterial activity against Staphylococcus aureus ATCC 29213 by broth macrodilution method; assay type: functional
Candida albicans = experiment: Antifungal activity against Candida albicans ATCC 90029 by broth macrodilution method; assay type: functional

CCCCC(C)c1cc(O)c(CC)c(O)c1C=O (configuration not stated) [ANGUILLOSPORAL]
MIC (Staphylococcus aureus): 4 µg/mL (≈ 16 µM)
MIC (Candida albicans): 58 µg/mL (≈ 232 µM)
